Results published in patent US11648289B2, “Antibacterial method” (priority 2016, dated 2023).
Converted amounts (≈) assume the structure as drawn. Read-outs that look alike come from different tables or passages of the source. No end group written: not given here.

How the values were obtained:
SP 4014 = assay: organism not typed
Method: (§1) All the strains (see below) used in minimal inhibitory concentration (MIC) assays (Ovchinnikov et al., 2017, Front Microbiol., 8, p774, doi:10.3389/fmicb.2017.00774) were grown in BHI medium (Oxoid) at 30° C. without shaking. The tested strains were obtained from the LMG collection. […] NisinZ and micrococcin P1 were purified from source. Synthesized peptides were solubilized to concentrations of 10.0-0.1 mg/ml in 0.1% (vol/vol) trifluoroacetic acid and stored at −20° C. until use. Garvicin KS is made up of 3 peptides:
(§2) Bacteriocin activity was determined using a microtitre plate assay. The plates were incubated at 30° C. for 8 h and the growth was measured spectrophotometrically at 600 nm (A600) with 15 min intervals using SPECTROstarNano (BMG LABTECH, Germany). The MIC was defined as the bacteriocin concentration that inhibited the growth of the indicator strain by at least 50% in 200 μl culture (i.e., 50% of the turbidity of the control culture without bacteriocin).

SP 4012 = assay: organism not typed
Method: as §1, §2

SP 4013 = assay: organism not typed
Method: as §1, §2

Sa3324 = assay: microbe, parasite or virus in culture
Method: as §1, §2

Sa ATCC 33591 = assay: microbe, parasite or virus in culture
Method: as §1, §2

Sa 3328 = assay: microbe, parasite or virus in culture
Method: as §1, §2

Sa3323 = assay: microbe, parasite or virus in culture
Method: as §1, §2

Sa 3242 = assay: microbe, parasite or virus in culture
Method: as §1, §2

SH 4015 = assay: microbe, parasite or virus in culture
Method: as §1, §2

SH 4016 = assay: microbe, parasite or virus in culture
Method: as §1, §2

KAVA = assay: MIC microtitre plate assay, pathogenic isolates; format: cell-based
Method: The tested strains were obtained from the LMG collection. […] NisinZ and micrococcin P1 were purified from source. […] Garvicin KS is made up of 3 peptides:
Bacteriocin activity was determined using a microtitre plate assay. The plates were incubated at 30° C. for 8 h and the growth was measured spectrophotometrically at 600 nm (A600) with 15 min intervals using SPECTROstarNano (BMG LABTECH, Germany).

E. faecalis (2) = conditions: 2
Method: as §1, §2

S. pseudointermedius (3) = test system: S. pseudointermedius (3)
Method: as §1, §2

Listeria spp. (3) = test system: Listeria spp. (3)
Method: as §1, §2

E. faecium (2) = test system: E. faecium (2)
Method: as §1, §2

E. hirae (4) = test system: E. hirae (4)
Method: as §1, §2

[1] = test system: EntEJ97/EntK1 resistant mutants of E. faecalis and E. faecium; assay: Challenge of EntEJ97/EntK1 resistant mutants with non-related bacteriocins; format: cell-based; conditions: all HR and LR mutants, compared to WT
From the text: To analyze whether this active site is important for bacteriocin sensitivity, we changed the invariant residues in this motif —H18-E19-F20-G21-H22—one by one and altogether in the enterococcal RseP (invariant residues underlined) to alanine and then assessed for bacteriocin sensitivity.

C=C(NC(=O)[C@@H](NC(=O)[C@H](Cc1c[nH]cn1)NC(=O)[C@@H](NC(=O)[C@H](CO)NC(=O)[C@@H]1CS[C@@H](C)[C@H]2NC(=O)[C@H](C)NC(=O)[C@H](NC(=O)[C@H](CCCCN)NC(=O)[C@H](CCSC)NC(=O)[C@H](CC(N)=O)NC(=O)[C@@H]3CS[C@@H](C)[C@@H](NC(=O)[C@H](CCCCN)NC(=O)[C@@H]4CS[C@@H](C)[C@@H](NC(=O)[C@@H]5CSC[C@@H](NC(=O)/C(=C/C)NC(=O)[C@@H](N)[C@@H](C)CC)C(=O)N[C@@H]([C@@H](C)CC)C(=O)NC(=C)C(=O)N[C@@H](CC(C)C)C(=O)N5)C(=O)N5CCC[C@H]5C(=O)NCC(=O)N4)C(=O)NCC(=O)N[C@@H](C)C(=O)N[C@@H](CC(C)C)C(=O)N[C@@H](CCSC)C(=O)NCC(=O)N3)[C@H](C)SC[C@H](NC2=O)C(=O)N[C@@H](CC(N)=O)C(=O)N1)[C@@H](C)CC)C(C)C)C(=O)N[C@@H](CCCCN)C(=O)O [NisinZ, reference compound] showed an MIC (SP 4014; SP 4014 (S. pseudointermedius)) of 0.4 µg/mL (≈ 0.12 µM), an MIC (SP 4012; SP 4012 (S. pseudointermedius)) of 0.4 µg/mL (≈ 0.12 µM) and an MIC (SP 4013; SP 4013 (S. pseudointermedius)) of 0.4 µg/mL (≈ 0.12 µM). For the same molecule, the MIC (Sa3324; Sa3324 (S. aureus)) was 1.6 µg/mL (≈ 0.48 µM), the MIC (Sa ATCC 33591; Sa ATCC 33591 (S. aureus)) was 0.8 µg/mL (≈ 0.24 µM) and the MIC (Sa 3328; Sa 3328 (S. aureus)) was 0.8 µg/mL (≈ 0.24 µM). For the same molecule, the MIC (Sa3323; Sa3323 (S. aureus)) was 6.25 µg/mL (≈ 1.88 µM), the MIC (Sa 3242; Sa 3242 (S. aureus)) was 3.1 µg/mL (≈ 0.931 µM) and the MIC (SH 4015; SH 4015 (S. haemolyticus)) was 1.6 to 3.1 µg/mL. For the same molecule, the MIC (SH 4016; SH 4016 (S. haemolyticus)) was 1.6 to 3.1 µg/mL.

With C/C=C(\NC(=O)c1csc(-c2csc(-c3ccc4c(n3)-c3csc(n3)[C@H]([C@@H](C)O)NC(=O)c3csc(n3)[C@H](C(C)C)NC(=O)c3csc(n3)/C(=C/C)NC(=O)[C@H]([C@@H](C)O)NC(=O)c3csc-4n3)n2)n1)C(=O)NC[C@@H](C)O [micrococcinP1, Micrococcin P1, reference compound] the MIC (SP 4014) was 0.8 µg/mL (≈ 0.699 µM), the MIC (SP 4012) was 0.4 µg/mL (≈ 0.35 µM) and the MIC (SP 4013) was 0.4 µg/mL (≈ 0.35 µM). It also gave an MIC (Sa3324; Staphylococcus aureus) of 0.1 µg/mL (≈ 0.0874 µM), an MIC (Sa ATCC 33591; Staphylococcus aureus, ATCC33591) of 0.4 µg/mL (≈ 0.35 µM) and an MIC (Sa 3328; Staphylococcus aureus, 3328) of 0.1 µg/mL (≈ 0.0874 µM). It also gave an MIC (Sa3323; Staphylococcus aureus) of 0.1 µg/mL (≈ 0.0874 µM), an MIC (Sa 3242; Staphylococcus aureus, 3242) of 0.2 µg/mL (≈ 0.175 µM) and an MIC (SH 4015; Staphylococcus haemolyticus) of 1.6 µg/mL (≈ 1.4 µM). It also gave an MIC (SH 4016; Staphylococcus haemolyticus) of 1.6 µg/mL (≈ 1.4 µM) and an MIC (KAVA) greater than 12.5 µg/mL.

In the case of “MIKKFPNPYTLAAKLTTYEINWYKQQYGRYPWERPVA [EntEJ97short]”, the MIC (SP 4014) is reported as 1.6 to 3.1 µg/mL, the MIC (SP 4012) is reported as 3.1 µg/mL and the MIC (SP 4013) is reported as 3.1 µg/mL. It also gave an MIC (E. faecalis (2)) of 1.6 µg/mL, an MIC (S. pseudointermedius (3)) of 1.6 to 31 µg/mL and an MIC (Listeria spp. (3)) greater than 50 µg/mL. For the same molecule, the MIC (E. faecium (2); 2) was 12.5 to 25 µg/mL, the MIC (E. hirae (4)) was 0.1 to 0.4 µg/mL and the MIC (Sa3324) was 6.25 µg/mL. The MIC (Sa ATCC 33591; ATCC 33591) was greater than 50 µg/mL, the MIC (Sa 3328) was 3.1 µg/mL and the MIC (Sa3323) was 3.1 to 6.25 µg/mL. It also gave an MIC (Sa 3242) of 12.5 µg/mL, an MIC (SH 4015) of 1.6 to 3.1 µg/mL and an MIC (SH 4016) of 1.6 to 3.1 µg/mL. For the same molecule, the MIC (KAVA; KAVA) was greater than 50 µg/mL.

In the case of “MKFKFNPTGTIVKKLTQYEINWYKQQYGRYPWERPVA [K1-EJ hybrid]”, the MIC (SP 4014) is reported as 12.5 µg/mL, the MIC (SP 4012) is reported as 25 µg/mL and the MIC (SP 4013) is reported as 12.5 µg/mL. It also gave an MIC (E. faecalis (2)) of 1.6 to 3.1 µg/mL, an MIC (S. pseudointermedius (3)) of 12.5 to 25 µg/mL and an MIC (Listeria spp. (3)) of 6.25 to 25 µg/mL. For the same molecule, the MIC (E. faecium (2); E. faecium (2), Table 6B) was less than 0.05 to 0.4 µg/mL, the MIC (E. hirae (4)) was 0.1 to 0.4 µg/mL and the MIC (Sa3324) was 6.25 µg/mL. It also gave an MIC (Sa ATCC 33591; ATCC 33591) greater than 50 µg/mL, an MIC (Sa 3328) of 3.1 µg/mL and an MIC (Sa3323) of 3.2 to 6.25 µg/mL. For the same molecule, the MIC (Sa 3242) was 3.1 µg/mL, the MIC (SH 4015) was 0.8 µg/mL and the MIC (SH 4016) was 0.8 to 1.6 µg/mL. The MIC (KAVA; KAVA) was greater than 50 µg/mL.

Work on “MLAKIKAMIKKFPNPYTLAAKLTTYEIAWFKNKHGYYPWEIPRC [EJ-K1 hybrid]” yielded an MIC (SP 4014) greater than 50 µg/mL, an MIC (SP 4012) greater than 50 µg/mL and an MIC (SP 4013) greater than 50 µg/mL. For the same molecule, the MIC (E. faecalis (2)) was 25 to 50 µg/mL, the MIC (S. pseudointermedius (3)) was 50 µg/mL and the MIC (E. faecium (2); 2) was 3.15 µg/mL. It also gave an MIC (E. hirae (4)) of 3.2 to 6.3 µg/mL, an MIC (Sa3324) of 12.5 µg/mL and an MIC (Sa ATCC 33591; ATCC 33591) greater than 50 µg/mL. The MIC (Sa 3328) was 6.25 µg/mL, the MIC (Sa3323) was 3.2 to 6.25 µg/mL and the MIC (Sa 3242) was 12.5 µg/mL. For the same molecule, the MIC (SH 4015) was 50 µg/mL, the MIC (SH 4016) was 50 µg/mL and the MIC (KAVA; KAVA) was greater than 50 µg/mL.

garvicin ML was tested, and the “sensitivity of EntEJ97/EntK1 resistant mutants to non-related bacteriocin” value [1] was “as sensitive as the WT strains”.

B1: GarKS: Garvicin KS is made up of 3 peptides (SEQ ID NO:43, 44, 45) (peptide, listed as Lactococcus garvieae)
chain 1: MGAIIKAGAKIVGKGVLGGGASWLGWNVGEKIWK
chain 2: MGAIIKAGAKIIGKGLLGGAAGGATYGGLKKIFG
chain 3: MGAIIKAGAKIVGKGALTGGGVWLAEKLFGGK
B1 showed an MIC (SP 4014; SP 4014 (S. pseudointermedius)) of 6.25 µg/mL, an MIC (SP 4012; SP 4012 (S. pseudointermedius)) of 6.25 µg/mL and an MIC (SP 4013; SP 4013 (S. pseudointermedius)) of 6.25 µg/mL. The MIC (Sa3324; Sa3324 (S. aureus)) was 6.25 µg/mL, the MIC (Sa ATCC 33591; Sa ATCC 33591 (S. aureus)) was 12.5 µg/mL and the MIC (Sa 3328; Sa 3328 (S. aureus)) was 3.1 µg/mL. It also gave an MIC (Sa3323; Sa3323 (S. aureus)) of 6.25 µg/mL, an MIC (Sa 3242; Sa 3242 (S. aureus)) of 3.1 µg/mL and an MIC (SH 4015; SH 4015 (S. haemolyticus)) of 6.25 µg/mL. The MIC (SH 4016; SH 4016 (S. haemolyticus)) was 6.25 µg/mL and the MIC (KAVA; KAVA) was 6.25 to 12.5 µg/mL.
